From patent US20210154272A1, “NEUROMODULATING COMPOSITIONS AND RELATED THERAPEUTIC METHODS FOR THE TREATMENT OF CANCER BY MODULATING AN ANTI-CANCER IMMUNE RESPONSE” (Flagship Pioneering Innovations V, Inc., priority 2016, published 2021) come the findings set out here.

The test system of assay [1] is primary human T cells. Kind of assay: T cell activation and cytokine secretion assay (LEGENDplex). The assay is classed as cell-based. As for the experimental part: Peripheral blood mononuclear cells (PBMCs) were isolated from whole blood by ficoll density separation. Briefly, blood was diluted 1:2 with 0.5 mM EDTA solution in PBS, loaded onto a Ficoll-filled Leucosep tube (Greiner Bio-One), and centrifuged for 20 minutes at 1000×g. After centrifugation, the leukocyte/PBMC layer on top of the separation medium was collected and sequentially washed three times with 0.5 mM EDTA solution in PBS. T cells were isolated from PBMCs using magnetic bead-based separation following vendor specification, e.g., Biolegend MojoSort Human CD4/CD8 Naïve T Cell Isolation Kit protocol. In brief, the PBMCs were labeled with biotinylated antibodies against cell surface receptors for cells not in the population of interest. The labeled cells are then captured by streptavidin-coated magnetic beads and removed by magnetic incubation. The uncaptured cells that flow through the magnetic separation are predominantly comprised of the population of interest, in this instance CD3+ T cells. T cells were stained with a 5 μM solution of Tag-it Violet™ dye (BioLegend) for 20 minutes protected from light. The stain was quenched by incubating the cells in cell culture medium containing 10% FBS (complete media). Stained cells were plated on tissue culture plates and sub-maximally activated with concanavalin A (con A) added to the culture medium. Cells were plated at 0.1×10^6 cells well. […] Cells were collected at 24, 48, and 72 hrs. Supernatants were collected at 24, 48, and 72 hrs and cytokine secretion was analyzed by flow cytometry using a LEGENDplex assay (BioLegend). In brief, following manufacturer's protocol, beads pre-coated with antibodies specific to various cytokines were incubated with cell supernatant. […] The beads were then stained and the captured cytokine composition assessed by flow cytometry.

The test system of assay [2] is T cells in the lymph node. Kind of assay: Lymph node remodeling by hock injection, flow cytometry of lymph node cells. The assay is classed as in vivo, C57BL/6J mice. The settings on record: hock injection of Haloperidol 48.5 nmol followed by quinpirole 0.1 nmol; 24 hours. (In flow cytometry, cells or beads pass a laser one at a time.)
Procedure: 24 hours after hock injection, brachial lymph nodes (LN) were harvested in culture medium (RPMI+10% FBS). LNs were transferred to 24-well tissue culture plates containing 0.5 mL LN digestion buffer (RPMI, 2% FBS, collagenase D (3.3 mg/mL), and DNAse I (40 ug/mL)). LN capsules were manually opened with two syringe (26G) needles and the LNs were incubated in digestion buffer for 15 minutes. Digested LNs were filtered with a 40 μNA cell strainer and tissues were smashed with the plunger of a 5 mL syringe. Collected cells were washed in culture medium and plated for assays. Total number of viable cells were assessed by staining with viability dye eFluor 780 (eBioscience). Surface markers of various immune cell subsets were analyzed by staining the cells with antibodies for cell identity (CD3, CD4, CD8, CD19), for the inflammatory marker CD69, and the migratory marker CCR7. The cells were then assayed by flow cytometry.
Assay [3] concerns macrophages differentiated from CD14+ monocytes. Kind of assay: Macrophage activation and cytokine secretion assay. The assay is classed as cell-based, human. Conditions: dilutions from 10 μM to 1 nM. As for the experimental part:
Peripheral blood mononuclear cells (PBMCs) were isolated from whole blood by ficoll density separation. Briefly, blood was diluted 1:2 with 0.5 mM EDTA solution in PBS, loaded onto a Ficoll-filled Leucosep tube (Greiner Bio-One), and centrifuged for 20 minutes at 1000×g. After centrifugation, the leukocyte/PBMC layer was collected and sequentially washed three times with 0.5 mM EDTA solution in PBS.
Monocytes (CD14+) were isolated from PBMCs using magnetic bead-based separation following vendor specifications, e.g., Biolegend MojoSort Human CD14 Selection Kit protocol. In brief, PBMCs were labeled with biotinylated antibodies against cell surface receptors for cells not in the population of interest. The labeled cells are then captured by streptavidin-coated magnetic beads and removed by magnetic incubation. The uncaptured cells that flow through the magnetic separation are predominantly comprised of the population of interest, in this case CD14+ monocytes.
Monocytes were differentiated into macrophages by culturing in DMEM complete medium containing 10% FBS for seven days in the presence of 40 ng/mL human M-CSF. Media was changed on day 1 and day 4. On Day 4, macrophages were polarized to various subtypes as follows: M0—incubated with 40 ng/mL M-CSF; M1—cultured with 40 ng/mL M-CSF, 20 ng/mL IFNγ, and 50 ng/mL LPS; M2—incubated with 40 ng/mL M-CSF, 20 ng/mL 1L4, 20 ng/mL IL10, and 20 ng/mL TFGB. On day 7, cells were harvested by scraping them from the tissue culture plates and transferring them to 96-well plates.
Supernatants were collected at 24, 48, and 72 hrs and cytokine secretion was analyzed by flow cytometry using a LEGENDplex assay (BioLegend). In brief, following manufacturer's protocol, beads that are pre-coated with antibodies specific to various cytokines were incubated with cell supernatant. […] The beads were then stained and the captured cytokine composition assessed by flow cytometry.
M1 macrophage polarization is defined as increase in production of IL-12, TNF, IL-6, IL-8, IL-1B, MCP-1 and CCL2. Additionally, markers of M1 polarization that can be detected by RNA include Nos2. M2 polarization is defined as increase in IL-10 and/or a decrease in the M1 cytokines listed above. Additionally, markers of M2 polarization that can be detected by RNA include Arg1, IDO, PF4, CCL24, IL10, and IL4Ralpha.

Assay [4] deals with Primary Natural Killer (NK) cells. Description: NK cell ADCC assay with trastuzumab-coated Her2 expressing target cells. The settings on record: for ADCC of NK cells treated with metaproterenol alone relative to NK cells pre-treated with this antagonist prior to the agonist: antagonist pre-treatment prior to metaproterenol. The assay is classed as cell-based, human. As for the experimental part:
Primary Natural Killer (NK) cells are isolated from human peripheral blood using a magnetic bead-based separation kit that negatively selects NK cells by sequestering other defined cell types (T, B, monocytes, etc.). Isolated NK cells are incubated with a target cell line, for example a Her2 expressing cancer cell line that has been pre-coated with trastuzumab, an anti-Her2 antibody, at a range of target-to-effector cell ratios. Following antibody-dependent cell cytotoxicity (ADCC)—antibody-mediated killing of the target cells by the NK cells, the number of surviving target cells is assessed by a fluorescent viability stain.

[5] abbreviates: low sub-nanomolar concentrations, 72 hours post treatment.
[6] abbreviates: T cells from two different donors, multiple time points.

Regarding `NCCc1ccc(O)c(O)c1` [dopamine], in assay [1] (24 and 48 hours post stimulation, nanomolar concentrations), the “production of the pro-survival cytokine IL-2” value is on record as “increase”. In assay [1] (setting [5]), the “production of the pro-inflammatory cytokine IL-5” value was “increase”, the “production of the pro-inflammatory cytokine IL-6” value is “increase”, the “production of the pro-inflammatory cytokine IL-10” value is on record as “increase” and the “production of the pro-inflammatory cytokine IL-13” value is listed as “increase”. The “production of the pro-inflammatory cytokine IFNγ” value in assay [1] (low sub-nanomolar concentrations, 72 hours post treatment, con A sub-maximally activated T cells) is “increase”.
For `O=C(CCCN1CCC(O)(c2ccc(Cl)cc2)CC1)c1ccc(F)cc1` [haloperidol], the “effect of antagonist pre-treatment on the quinpirole-induced increase of CCR7+ T cells in the lymph node” value in assay [2] is recorded as “inhibited”.
Turning to `CC(C)NCC(O)c1ccc(O)c(O)c1` (stereo not drawn) [isoproterenol], the “transcript of NOS2” value in assay [3] (M1 marker) was “decrease”. Also, in assay [3] (M2 marker), the “transcripts for Arg1” value is on record as “increase” and the “transcripts for IL-10” value is on record as “increase”. Moreover, the “macrophage polarization (M1 or M2 phenotype)” value in assay [3] was “polarized toward an M2 phenotype”. Moreover, the “production of pro-inflammatory cytokine IFNγ” value in assay [1] (T cells from two different donors, 72 hours (FIG. 6A)) is on record as “decreased”. In addition, the “production of pro-inflammatory cytokine TNFα” value in assay [1] (T cells from two different donors, 72 hours (FIG. 6B)) is “decreased”. Besides, in assay [1] (T cells from two different donors, 72 hours (FIG. 6C)), the “production of pro-inflammatory cytokine IL-10” value was “decreased”. Also, in assay [1] (setting [6]), the “amount of pro-inflammatory cytokine IL-10” value was “decrease”, the “production of pro-inflammatory cytokine IFNγ” value is reported as “decrease” and the “production of pro-inflammatory cytokine TNFα” value is listed as “decrease”.
As to `CC(C)NCC(O)c1cc(O)cc(O)c1` (stereo not drawn) [metaproterenol], the “ADCC induced by agonist-treated NK cells, compared with NK cells pre-treated with a beta adrenergic antagonist prior to the agonist” value in assay [4] (surviving target cells by fluorescent viability stain) is “significantly less ADCC”.
As to `CC(C)(C)NCC(O)COc1cccc2c1CC(O)C(O)C2` (stereo not drawn) [nadolol], in assay [4], the “ADCC of NK cells treated with metaproterenol alone relative to NK cells pre-treated with this antagonist prior to the agonist” value is listed as “significantly less ADCC”.
The same measure, in the same setting: then `CC(C)NCC(O)COc1cccc2ccccc12` (stereo not drawn) [propranolol], with “significantly less ADCC”.
Regarding neuropeptide Y, in assay [1] (sub-nanomolar concentrations, 48 hours post-treatment), the “cytokine IL-4” value is on record as “increase”.
